# Experimental data from patent US20240424002A1, “METHODS AND COMPOSITIONS FOR TREATING MELANOMA” (THE REGENTS OF THE UNIVERSITY OF CALIFORNIA, priority 2021, published 2024).
# “Also recorded” adds a separate entry of the source.
# Assays:
# M249-VSR sublines = assay: Viability assay for inducing and protecting from ferroptosis; type: cell-based, human; conditions: added in combination with RSL3; CellTiter-Glo 24 hr after treatment; FIG. 7B-C / 24B-C
# Protocol: 6000 cells were seeded per well in 96-well plates and treated with ferroptosis inducing agents in combination with vehicle, GSH (Sigma, G4376), Trolox (Acros Organics, 218940010) or DFO (Sigma, D9533) next day. CellTiter-Glo luminescence was assessed 24 hr after treatment. For quantification, all values are normalized to vehicle conditions. Resistance cells were maintained in full dose of MAPK inhibitors throughout the treatments to keep the BRAF amplifications.
# [1] = test system: SC4 DM+ cells (M249-VSR single-cell-derived clone); assay: FISH assessment of HSRs after long-term DNA-PK inhibition; type: cell-based, human; conditions: 5 μM NU7026 for 107 days vs DMSO 90 days; FIG. 2E
# Protocol: (§1) Cells were blocked at metaphases by adding colcemid (KaryoMax, Thermo Fisher Scientific) at a final concentration of 0.05 μg/ml followed by incubation at 37° C. for 6-8 hours. Cells were then fixed using methanol:acetic acid (3:1). FISH slides were prepared by dropping fixed cells in a humid environment following the manufacture's protocol provided by Cytotest and Empire Genomics. FFPE xenograft tumor FISH slides were prepared by pepsin digestion followed by similar procedures of cell line FISH. Colored FISH images were taken and processed using confocal microscope Leica TCS SP8 X. Karyotype categorizations were based on the guidelines in FIG. 8. The fractions under certain images represent the number of cases for corresponding karyotype divided by total number of cases analyzed. If not otherwise mentioned, scale bars in FISH images represent 10 μm. Centromere probe names are abbreviated as CEN-x. DM numbers were quantified by directly counting the number of features in the FISH images or by using ecDNA quantification tool EcSeg (93). HSR lengths were quantified by dividing the probe area by chromosomal DAPI area in metaphases. The staining areas were calculated using ImageJ v1.53a. Cells fixed by the same procedure were also used for G-banding. G-banded metaphase spreads were photographed using 80i Nikon Microscope and Applied Spectral Imaging (ASI) Karyotyping system. […]
# [2] = test system: SC2 cells (M249-VSR HSR subclone); assay: FISH count of HSRs per cell after long-term DNA-PK inhibition; type: cell-based, human; conditions: 5 μM NU7026 for three months vs DMSO; FIG. 2G
# Protocol: as §1
# [3] = test system: M229P/R, M238P/R and SKMEL28P/R cell lines; conditions: resistance through upregulation of RTKs, dedifferentiation; cited from earlier work
# [4] = test system: M249-P, M249-VSR-DM and M249-VSR-HSR cells; assay: Dose response curve of ferroptosis inducing agents, viability by CellTiter-Glo; type: cell-based, human; conditions: for sensitivity to RSL3 of M249-VSR after drug withdrawal: after VEM+SEL withdrawal, reduced BRAF copy number
# Protocol: (§2) The dose response curves of ferroptosis inducing agents RSL3, Erastin and Ferroptocide were performed by seeding appropriate number of cells on day 0 in 96-well plates, […] luminescent assay. If not otherwise mentioned, resistance cells were maintained in full dose of MAPK inhibitors throughout the dose response experiments to keep the BRAF amplifications. Seeding density for each cell line was determined by using the same assay and the same experimental length with multiple cell number titrations. The dose series were generated by serial dilutions. All drugs used for dose response curves were dissolved in DMSO. DMSO toxicity was performed on the cell lines to determine the appropriate DMSO concentration (0.5%), which was used in all doses. The resulting values from viability assays were normalized to the zero-dose condition after subtracting background (wells with no cells). The curve fittings were performed by using three-parameter model in dre v3.0-1 R package (119).
# [5] = test system: M249-P and M249-VSR-DM cells; assay: Lipid ROS measurement by flow cytometry; type: cell-based, human; conditions: FIG. 23A / 25A
# [6] = test system: A375-DTR cells vs parental; assay: Dose response curve of ferroptosis inducing agents, viability by CellTiter-Glo; type: cell-based
# Protocol: as §2
# [7] = test system: Mel888-DTR cells vs parental; assay: as above; type: cell-based
# Protocol: as §2
compound,measurement,setting,value
"N[C@@H](CCC(=O)N[C@@H](CS)C(=O)NCC(=O)O)C(=O)O [GSH, reduced glutathione]",rescue of RSL3-induced cell death (percent viable cells),M249-VSR sublines,cell death can be rescued
O=c1cc(N2CCOCC2)oc2c1ccc1ccccc12 [NU7026],frequency of cells displaying HSR integrations,[1],decreased the frequency of cells displaying HSR integrations
same,percentage of cells with multiple HSRs,[2],lower percentage of multiple HSRs
COC(=O)c1ccc([C@@H]2c3[nH]c4ccccc4c3C[C@@H](C(=O)OC)N2C(=O)CCl)cc1 [RSL3],sensitivity to RSL3 of resistant vs parental lines,[3],increased sensitivity
same,sensitivity to RSL3 of M249-VSR-DM and -HSR compared to M249-P,"[4]; FIG. 7A, 72 hr treatment",substantially more sensitive
same,sensitivity to RSL3 of M249-VSR after drug withdrawal,"[4]; FIG. 7A, 72 hr treatment",lose sensitivity reverting to levels closer to the parental cells
same,sensitivity to RSL3 of M249-VSR-DM and -HSR compared to M249-P,"[4]; FIG. 24A, 24 hr treatment, CellTiter-Glo, resistant cells kept in full dose MAPK inhibitors",substantially more sensitive
same,sensitivity to RSL3 of M249-VSR after drug withdrawal,"[4]; FIG. 24A, 24 hr treatment",lose sensitivity reverting to levels closer to the parental cells
same,lipid ROS levels upon RSL3 treatment,"[5]; 1 μM RSL3, 24 hr, C11-BODIPY dye",increased lipid ROS levels; also recorded: increase in lipid ROS levels
same,RSL3 sensitivity of A375-DTR compared to parental,"[6]; FIG. 7A, 72 hr treatment",increased RSL3 sensitivity
same,RSL3 sensitivity of A375-DTR compared to parental,"[6]; FIG. 24A, 24 hr treatment",increased RSL3 sensitivity
same,RSL3 sensitivity of Mel888-DTR compared to parental,"[7]; FIG. 7A, 72 hr treatment",increased RSL3 sensitivity
same,RSL3 sensitivity of Mel888-DTR compared to parental,"[7]; FIG. 24A, 24 hr treatment",increased RSL3 sensitivity
Cc1c(C)c2c(c(C)c1O)CCC(C)(C(=O)O)O2 (stereo not shown) [Trolox],rescue of RSL3-induced cell death (percent viable cells),M249-VSR sublines,cell death can be rescued
same,protection against RSL3-induced lipid ROS,"[5]; 150 μM Trolox with 1 μM RSL3, 24 hr",protected; also recorded: protects against RSL3-induced lipid ROS
C[C@@H]1CC[C@@]23C[C@H](O)C(=O)[C@@]2(O)[C@]1(C)[C@H](OC(=O)CCl)C[C@@H](C1=CCn2c(=O)n(-c4ccccc4)c(=O)n2C1)[C@@H]3C [ferroptocide],sensitivity of BRAF-amplified M249 dual MAPKi-resistant cells compared to parental,"[4]; FIG. 23B, M249-VSR-DM and -HSR, 72 hr treatment, CellTiter-Glo",sensitive
